Measurements: ChEMBL document CHEMBL3046635, “Synthesis and Herbicidal Activity of New Pyrazole-4-carboxamide Derivatives” (J Pestic Sci, 2004)
The source made the active and inactive calls.

system: Oryza sativa; assay: Phytotoxicity against Oryza sativa cv. Koshihikari (rice) at 2000 g a.i/ha measured after 14 days; assay type: organism-based; conditions: in vivo, 336 h

| Structure (SMILES) | Activity |
| --- | --- |
| CCCN(CC)C(=O)c1cn(C)nc1OC | Non-toxic |
| CCCN(CC)C(=O)c1cn(C)nc1OCc1cccc(Cl)c1 | Non-toxic |
| CCCN(CC)C(=O)c1cn(C)nc1OCc1ccc(SC)cc1 | Non-toxic |

system: Echinochloa oryzicola; assay: Pre-emergence herbicidal activity against Echinochloa oryzicola at 2000 g a.i/ha measured after 14 days; assay type: functional, organism-based; conditions: not given

| Structure (SMILES) | Activity |
| --- | --- |
| CCCN(CC)C(=O)c1cn(C)nc1OC | inactive |
| CCCN(CC)C(=O)c1cn(C)nc1OCc1cccc(Cl)c1 | Active |
| CCCN(CC)C(=O)c1cn(C)nc1OCc1ccc(SC)cc1 | inactive |

system: Eleocharis acicularis; assay: Post-emergence herbicidal activity against Eleocharis acicularis assessed as bleaching of stem/leaf parts; assay type: functional, organism-based; conditions: not given; note: test concentration or dose not given here

| Structure (SMILES) | Activity |
| --- | --- |
| CCCN(CC)C(=O)c1cn(C)nc1OC | Active |
| CCCN(CC)C(=O)c1cn(C)nc1OCc1cccc(Cl)c1 | Active |
| CCCN(CC)C(=O)c1cn(C)nc1OCc1ccc(SC)cc1 | Active |

system: Eleocharis acicularis; assay: Pre-emergence herbicidal activity against Eleocharis acicularis assessed as bleaching of stem/leaf parts; assay type: functional, organism-based; conditions: not given

| Structure (SMILES) | Activity |
| --- | --- |
| CCCN(CC)C(=O)c1cn(C)nc1OC | Active |
| CCCN(CC)C(=O)c1cn(C)nc1OCc1cccc(Cl)c1 | Active |
| CCCN(CC)C(=O)c1cn(C)nc1OCc1ccc(SC)cc1 | Active |

system: Ammannia multiflora; assay: Pre-emergence herbicidal activity against Ammannia multiflora assessed as bleaching of stem/leaf parts; assay type: functional, organism-based; conditions: not given

| Structure (SMILES) | Activity |
| --- | --- |
| CCCN(CC)C(=O)c1cn(C)nc1OC | Active |
| CCCN(CC)C(=O)c1cn(C)nc1OCc1cccc(Cl)c1 | Active |
| CCCN(CC)C(=O)c1cn(C)nc1OCc1ccc(SC)cc1 | Active |

system: Rotala indica; assay: Pre-emergence herbicidal activity against Rotala indica assessed as bleaching of stem/leaf parts; assay type: functional, organism-based; conditions: not given

| Structure (SMILES) | Activity |
| --- | --- |
| CCCN(CC)C(=O)c1cn(C)nc1OC | Active |
| CCCN(CC)C(=O)c1cn(C)nc1OCc1cccc(Cl)c1 | Active |
| CCCN(CC)C(=O)c1cn(C)nc1OCc1ccc(SC)cc1 | Active |

system: Elatine triandra; assay: Pre-emergence herbicidal activity against Elatine triandra assessed as bleaching of stem/leaf parts; assay type: functional, organism-based; conditions: not given

| Structure (SMILES) | Activity |
| --- | --- |
| CCCN(CC)C(=O)c1cn(C)nc1OC | Active |
| CCCN(CC)C(=O)c1cn(C)nc1OCc1cccc(Cl)c1 | Active |
| CCCN(CC)C(=O)c1cn(C)nc1OCc1ccc(SC)cc1 | Active |

system: Lindernia procumbens; assay: Pre-emergence herbicidal activity against Lindernia procumbens assessed as bleaching of stem/leaf parts; assay type: functional, organism-based; conditions: not given

| Structure (SMILES) | Activity |
| --- | --- |
| CCCN(CC)C(=O)c1cn(C)nc1OC | Active |
| CCCN(CC)C(=O)c1cn(C)nc1OCc1cccc(Cl)c1 | Active |
| CCCN(CC)C(=O)c1cn(C)nc1OCc1ccc(SC)cc1 | Active |

system: Schoenoplectiella juncoides; assay: Pre-emergence herbicidal activity against Schoenoplectiella juncoides assessed as bleaching of stem/leaf parts; assay type: functional, organism-based; conditions: not given

| Structure (SMILES) | Activity |
| --- | --- |
| CCCN(CC)C(=O)c1cn(C)nc1OC | Active |
| CCCN(CC)C(=O)c1cn(C)nc1OCc1cccc(Cl)c1 | Active |
| CCCN(CC)C(=O)c1cn(C)nc1OCc1ccc(SC)cc1 | Active |

system: Pontederia vaginalis; assay: Pre-emergence herbicidal activity against Monochoria vaginalis assessed as bleaching of stem/leaf parts; assay type: functional, organism-based; conditions: not given

| Structure (SMILES) | Activity |
| --- | --- |
| CCCN(CC)C(=O)c1cn(C)nc1OC | Active |
| CCCN(CC)C(=O)c1cn(C)nc1OCc1cccc(Cl)c1 | Active |
| CCCN(CC)C(=O)c1cn(C)nc1OCc1ccc(SC)cc1 | Active |

system: Cyperus difformis; assay: Pre-emergence herbicidal activity against Cyperus difformis assessed as bleaching of stem/leaf parts; assay type: functional, organism-based; conditions: not given

| Structure (SMILES) | Activity |
| --- | --- |
| CCCN(CC)C(=O)c1cn(C)nc1OC | Active |
| CCCN(CC)C(=O)c1cn(C)nc1OCc1cccc(Cl)c1 | Active |
| CCCN(CC)C(=O)c1cn(C)nc1OCc1ccc(SC)cc1 | Active |

system: Echinochloa oryzicola; assay: Pre-emergence herbicidal activity against Echinochloa oryzicola assessed as bleaching of stem/leaf parts; assay type: functional, organism-based; conditions: not given

| Structure (SMILES) | Activity |
| --- | --- |
| CCCN(CC)C(=O)c1cn(C)nc1OC | Active |
| CCCN(CC)C(=O)c1cn(C)nc1OCc1cccc(Cl)c1 | Active |
| CCCN(CC)C(=O)c1cn(C)nc1OCc1ccc(SC)cc1 | Active |

system: Ammannia multiflora; assay: Post-emergence herbicidal activity against Ammannia multiflora assessed as bleaching of stem/leaf parts; assay type: functional, organism-based; conditions: not given; note: test concentration or dose not given here

| Structure (SMILES) | Activity |
| --- | --- |
| CCCN(CC)C(=O)c1cn(C)nc1OC | Active |
| CCCN(CC)C(=O)c1cn(C)nc1OCc1cccc(Cl)c1 | Active |
| CCCN(CC)C(=O)c1cn(C)nc1OCc1ccc(SC)cc1 | Active |

system: Elatine triandra; assay: Post-emergence herbicidal activity against Elatine triandra assessed as bleaching of stem/leaf parts; assay type: functional, organism-based; conditions: not given; note: test concentration or dose not given here

| Structure (SMILES) | Activity |
| --- | --- |
| CCCN(CC)C(=O)c1cn(C)nc1OC | Active |
| CCCN(CC)C(=O)c1cn(C)nc1OCc1cccc(Cl)c1 | Active |
| CCCN(CC)C(=O)c1cn(C)nc1OCc1ccc(SC)cc1 | Active |

system: Rotala indica; assay: Post-emergence herbicidal activity against Rotala indica assessed as bleaching of stem/leaf parts; assay type: functional, organism-based; conditions: not given; note: test concentration or dose not given here

| Structure (SMILES) | Activity |
| --- | --- |
| CCCN(CC)C(=O)c1cn(C)nc1OC | Active |
| CCCN(CC)C(=O)c1cn(C)nc1OCc1cccc(Cl)c1 | Active |
| CCCN(CC)C(=O)c1cn(C)nc1OCc1ccc(SC)cc1 | Active |

system: Schoenoplectiella juncoides; assay: Post-emergence herbicidal activity against Schoenoplectiella juncoides assessed as bleaching of stem/leaf parts; assay type: functional, organism-based; conditions: not given; note: test concentration or dose not given here

| Structure (SMILES) | Activity |
| --- | --- |
| CCCN(CC)C(=O)c1cn(C)nc1OC | Active |
| CCCN(CC)C(=O)c1cn(C)nc1OCc1cccc(Cl)c1 | Active |
| CCCN(CC)C(=O)c1cn(C)nc1OCc1ccc(SC)cc1 | Active |

system: Lindernia procumbens; assay: Post-emergence herbicidal activity against Lindernia procumbens assessed as bleaching of stem/leaf parts; assay type: functional, organism-based; conditions: not given; note: test concentration or dose not given here

| Structure (SMILES) | Activity |
| --- | --- |
| CCCN(CC)C(=O)c1cn(C)nc1OC | Active |
| CCCN(CC)C(=O)c1cn(C)nc1OCc1cccc(Cl)c1 | Active |
| CCCN(CC)C(=O)c1cn(C)nc1OCc1ccc(SC)cc1 | Active |

system: Pontederia vaginalis; assay: Post-emergence herbicidal activity against Monochoria vaginalis assessed as bleaching of stem/leaf parts; assay type: functional, organism-based; conditions: not given; note: test concentration or dose not given here

| Structure (SMILES) | Activity |
| --- | --- |
| CCCN(CC)C(=O)c1cn(C)nc1OC | Active |
| CCCN(CC)C(=O)c1cn(C)nc1OCc1cccc(Cl)c1 | Active |
| CCCN(CC)C(=O)c1cn(C)nc1OCc1ccc(SC)cc1 | Active |

system: Cyperus difformis; assay: Post-emergence herbicidal activity against Cyperus difformis assessed as bleaching of stem/leaf parts; assay type: functional, organism-based; conditions: not given; note: test concentration or dose not given here

| Structure (SMILES) | Activity |
| --- | --- |
| CCCN(CC)C(=O)c1cn(C)nc1OC | Active |
| CCCN(CC)C(=O)c1cn(C)nc1OCc1cccc(Cl)c1 | Active |
| CCCN(CC)C(=O)c1cn(C)nc1OCc1ccc(SC)cc1 | Active |

system: Echinochloa oryzicola; assay: Post-emergence herbicidal activity against Echinochloa oryzicola assessed as bleaching of stem/leaf parts; assay type: functional, organism-based; conditions: not given; note: test concentration or dose not given here

| Structure (SMILES) | Activity |
| --- | --- |
| CCCN(CC)C(=O)c1cn(C)nc1OC | Active |
| CCCN(CC)C(=O)c1cn(C)nc1OCc1cccc(Cl)c1 | Active |
| CCCN(CC)C(=O)c1cn(C)nc1OCc1ccc(SC)cc1 | Active |

system: Eleocharis acicularis; assay: Pre-emergence herbicidal activity against Eleocharis acicularis at 2000 g a.i/ha measured after 14 days; assay type: functional, organism-based; conditions: not given

| Structure (SMILES) | Activity |
| --- | --- |
| CCCN(CC)C(=O)c1cn(C)nc1OC | inactive |
| CCCN(CC)C(=O)c1cn(C)nc1OCc1cccc(Cl)c1 | Active |
| CCCN(CC)C(=O)c1cn(C)nc1OCc1ccc(SC)cc1 | inactive |

system: Schoenoplectiella juncoides; assay: Pre-emergence herbicidal activity against Schoenoplectiella juncoides at 2000 g a.i/ha measured after 14 days; assay type: functional, organism-based; conditions: not given

| Structure (SMILES) | Activity |
| --- | --- |
| CCCN(CC)C(=O)c1cn(C)nc1OC | inactive |
| CCCN(CC)C(=O)c1cn(C)nc1OCc1cccc(Cl)c1 | Active |
| CCCN(CC)C(=O)c1cn(C)nc1OCc1ccc(SC)cc1 | inactive |

system: Pontederia vaginalis; assay: Pre-emergence herbicidal activity against Monochoria vaginalis at 2000 g a.i/ha measured after 14 days; assay type: functional, organism-based; conditions: not given

| Structure (SMILES) | Activity |
| --- | --- |
| CCCN(CC)C(=O)c1cn(C)nc1OC | inactive |
| CCCN(CC)C(=O)c1cn(C)nc1OCc1cccc(Cl)c1 | Active |
| CCCN(CC)C(=O)c1cn(C)nc1OCc1ccc(SC)cc1 | inactive |

system: Ammannia multiflora; assay: Pre-emergence herbicidal activity against Ammannia multiflora at 2000 g a.i/ha measured after 14 days; assay type: functional, organism-based; conditions: not given

| Structure (SMILES) | Activity |
| --- | --- |
| CCCN(CC)C(=O)c1cn(C)nc1OC | inactive |
| CCCN(CC)C(=O)c1cn(C)nc1OCc1cccc(Cl)c1 | Active |
| CCCN(CC)C(=O)c1cn(C)nc1OCc1ccc(SC)cc1 | inactive |

system: Rotala indica; assay: Pre-emergence herbicidal activity against Rotala indica at 2000 g a.i/ha measured after 14 days; assay type: functional, organism-based; conditions: not given

| Structure (SMILES) | Activity |
| --- | --- |
| CCCN(CC)C(=O)c1cn(C)nc1OC | inactive |
| CCCN(CC)C(=O)c1cn(C)nc1OCc1cccc(Cl)c1 | Active |
| CCCN(CC)C(=O)c1cn(C)nc1OCc1ccc(SC)cc1 | inactive |

system: Elatine triandra; assay: Pre-emergence herbicidal activity against Elatine triandra at 2000 g a.i/ha measured after 14 days; assay type: functional, organism-based; conditions: not given

| Structure (SMILES) | Activity |
| --- | --- |
| CCCN(CC)C(=O)c1cn(C)nc1OC | inactive |
| CCCN(CC)C(=O)c1cn(C)nc1OCc1cccc(Cl)c1 | Active |
| CCCN(CC)C(=O)c1cn(C)nc1OCc1ccc(SC)cc1 | inactive |

system: Lindernia procumbens; assay: Pre-emergence herbicidal activity against Lindernia procumbens at 2000 g a.i/ha measured after 14 days; assay type: functional, organism-based; conditions: not given

| Structure (SMILES) | Activity |
| --- | --- |
| CCCN(CC)C(=O)c1cn(C)nc1OC | inactive |
| CCCN(CC)C(=O)c1cn(C)nc1OCc1cccc(Cl)c1 | Active |
| CCCN(CC)C(=O)c1cn(C)nc1OCc1ccc(SC)cc1 | inactive |

system: Cyperus difformis; assay: Pre-emergence herbicidal activity against Cyperus difformis at 2000 g a.i/ha measured after 14 days; assay type: functional, organism-based; conditions: not given

| Structure (SMILES) | Activity |
| --- | --- |
| CCCN(CC)C(=O)c1cn(C)nc1OC | inactive |
| CCCN(CC)C(=O)c1cn(C)nc1OCc1cccc(Cl)c1 | Active |
| CCCN(CC)C(=O)c1cn(C)nc1OCc1ccc(SC)cc1 | inactive |
